Source: patent publication US20240309003A1, “HETEROCYCLIC COMPOUNDS AS TRIGGERING RECEPTOR EXPRESSED ON MYELOID CELLS 2 AGONISTS AND METHODS OF USE” (Vigil Neuroscience, Inc., priority 2021, published 2024)

What follows are compounds tested against T1, human TREM2 (Homo sapiens, UniProt Q9NZC2) (assay: TREM2 agonist potency by cellular phosphorylation of Syk (AlphaLisa) in HEK293T-hTREM2 cells). Details: HEK293 cells expressing human TREM2 and DAP12, Table D.
T1 construct: expressed in transfected cells; host or cells: HEK293T
T1 sequence (Q9NZC2 19-230): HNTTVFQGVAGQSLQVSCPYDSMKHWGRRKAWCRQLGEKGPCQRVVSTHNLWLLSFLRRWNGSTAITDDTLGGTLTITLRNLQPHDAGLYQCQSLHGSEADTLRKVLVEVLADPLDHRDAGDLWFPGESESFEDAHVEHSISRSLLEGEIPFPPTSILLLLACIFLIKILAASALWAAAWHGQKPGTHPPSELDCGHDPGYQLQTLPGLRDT
T1 sequence (O43914 22-113 partner): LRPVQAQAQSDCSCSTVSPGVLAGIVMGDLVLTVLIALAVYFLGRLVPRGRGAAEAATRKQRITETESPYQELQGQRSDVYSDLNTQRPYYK
Type: cell-based
Method in brief: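 Agonist EC50 from a variable-slope four-parameter fit of % activation, based on AlphaLisa phospho-Syk levels in lysates. Cells: HEK293T-hTREM2 (with DAP12), treated 45 min at room temperature with compound in assay buffer.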

| SMILES | EC50 [µM] |
| --- | --- |
| COc1ncccc1[C@H]1C[C@@H](c2nc(-c3ccc(F)cc3F)c3nc(C)c(C)nc3n2)CCO1 [Example 161, 4-(2,4-difluorophenyl)-2-((2R,4S)-2-(2-methoxypyridin-3-yl)tetrahydro-2H-pyran-4-yl)-6,7-dimethylpteridine] | 0.05 to 0.5 |
| [2H]C([2H])([2H])n1cc([C@H]2C[C@@H](c3nc(-c4ccc(F)cc4F)c4nc(C)c(C)nc4n3)CCO2)cn1 [Example 156] | 0.05 to 0.5 |
| Cc1nc2nc([C@@H]3CCO[C@H](c4cnn(C5CC5)n4)C3)nc(-c3ccc(F)cc3F)c2nc1C [Example 154, 2-((2S,4R)-2-(2-cyclopropyl-2H-1,2,3-triazol-4-yl)tetrahydro-2H-pyran-4-yl)-4-(2,4-difluorophenyl)-6,7-dimethylpteridine] | 0.05 to 0.5 |
| Cc1nc2nc(N3CCO[C@@H](c4cc[nH]c(=O)c4)C3)nc(-c3ccc(C(F)(F)F)nc3)c2nc1C [Example 195, (S)-4-(4-(6,7-dimethyl-4-(6-(trifluoromethyl)pyridin-3-yl)pteridin-2-yl)morpholin-2-yl)pyridin-2(1H)-one] | < 0.05 |
| [2H]C1(n2cc([C@H]3C[C@@H](c4nc(-c5ccc(Cl)cc5F)c5nc(C)c(C)nc5n4)CCO3)cn2)CC1 [Example 179, 4-(4-chloro-2-fluorophenyl)-2-((2R,4S)-2-(1-(cyclopropyl-1-d)-1H-pyrazol-4-yl)tetrahydro-2H-pyran-4-yl)-6,7-dimethylpteridine] | < 0.05 |
| Cc1nc2nc([C@@H]3CCO[C@H](c4cnn(C5CCC5)c4)C3)nc(-c3ccc(F)cc3F)c2nc1C [Example 147, 2-((2S,4R)-2-(1-cyclobutyl-1H-pyrazol-4-yl)tetrahydro-2H-pyran-4-yl)-4-(2,4-difluorophenyl)-6,7-dimethylpteridine] | 0.05 to 0.5 |
| Cc1nc2nc(N3CCO[C@@H](c4cnn(C5CC5)c4)C3)nc(-c3ccc4c(c3)CC4)c2nc1C [Example 240, (S)-4-(4-(bicyclo[4.2.0]octa-1,3,5-trien-3-yl)-6,7-dimethylpteridin-2-yl)-2-(1-cyclopropyl-1H-pyrazol-4-yl)morpholine] | 0.05 to 0.5 |
| Cc1ccc2c(C34CC(C(F)(F)F)(C3)C4)nc([C@H]3CCO[C@@H](c4cnn(C5CC5)c4)C3)nc2n1 [Example 221, 2-((2R,4S)-2-(1-cyclopropyl-1H-pyrazol-4-yl)tetrahydro-2H-pyran-4-yl)-7-methyl-4-(3-(trifluoromethyl)bicyclo[1.1.1]pentan-1-yl)pyrido[2,3-d]pyrimidine] | < 0.05 |
| [2H]C1([2H])C[C@@H](c2nc(-c3ccc(F)cc3F)c3nc(C)c(C)nc3n2)C[C@@]([2H])(c2cnn(C3CC3)c2)O1 (single isomer, unassigned) [Example 191] | 3 to 100 |
| Cc1nc2nc(N3CCN(C)[C@@H](c4cnn(C5CC5)c4)C3)nc(-c3ccc(Cl)cc3F)c2nc1C [Example 206, (S)-4-(4-chloro-2-fluorophenyl)-2-(3-(1-cyclopropyl-1H-pyrazol-4-yl)-4-methylpiperazin-1-yl)-6,7-dimethylpteridine] | 0.05 to 0.5 |
| Cc1nc2nc(N3CCO[C@H](c4cnn(C5CC5)c4)C3)nc(-c3ccc4c(c3)CC4)c2nc1C [Example 242, (R)-4-(4-(bicyclo[4.2.0]octa-1,3,5-trien-3-yl)-6,7-dimethylpteridin-2-yl)-2-(1-cyclopropyl-1H-pyrazol-4-yl)morpholine] | < 0.05 |
| Cc1cnc2c(-c3ccc(Cl)cc3F)nc(N3C[C@@H](C)O[C@@H](c4cnn(C5CC5)c4)C3)nc2n1 (racemic) [Example 70, 4-(4-(4-chloro-2-fluorophenyl)-7-methylpteridin-2-yl)-2-(1-cyclopropyl-1H-pyrazol-4-yl)-6-methylmorpholine] | < 0.05 |

Same assay, conditions: HEK293 cells expressing human TREM2 and DAP12, Table D-2

| SMILES | EC50 [µM] |
| --- | --- |
| Cc1nc2nc([C@H]3CCO[C@@H](c4cnn(CC5CC5)c4)C3)nc(-c3ccc(C(F)(F)F)cc3F)c2nc1C [Example I-1577, 2-[(2R,4S)-2-[1-(cyclopropylmethyl)pyrazol-4-yl]tetrahydropyran-4-yl]-4-[2-fluoro-4-(trifluoromethyl)phenyl]-6,7-dimethyl-pteridine] | < 0.05 |
| Cc1nc2nc(N3C[C@@H](C)O[C@@H](c4cnn(C5CC5)c4)C3)nc(-c3cc(F)c(C(F)(F)F)cc3F)c2nc1C [Example I-1538, (2S,6R)-2-(1-cyclopropylpyrazol-4-yl)-4-[4-[2,5-difluoro-4-(trifluoromethyl)phenyl]-6,7-dimethyl-pteridin-2-yl]-6-methyl-morpholine] | < 0.05 |
| Cc1nc2nc(N3C[C@@H](c4cnn(C)c4)O[C@@H](C4CC4)C3)nc(-c3ccc(F)cc3F)c2nc1C [Example I-1674, (2S,6R)-2-cyclopropyl-4-[4-(2,4-difluorophenyl)-6,7-dimethyl-pteridin-2-yl]-6-(1-methylpyrazol-4-yl)morpholine] | 0.05 to 0.5 |
| Cc1nc2nc(N3C[C@@H](c4cnn(C(F)F)c4)O[C@@H](C4CC4)C3)nc(-c3ccc(C(F)(F)F)cc3F)c2nc1C [Example I-1712, (2S,6R)-2-cyclopropyl-6-[1-(difluoromethyl)pyrazol-4-yl]-4-[4-[2-fluoro-4-(trifluoromethyl)phenyl]-6,7-dimethyl-pteridin-2-yl]morpholine] | 0.05 to 0.5 |
| Cc1nc2nc(N3C[C@@H](c4cnn(C(F)F)c4)O[C@@H](C4CC4)C3)nc(-c3ccc(F)cc3F)c2nc1C (stereo in doubt) [Example I-1701, (2S,6R)-2-cyclopropyl-6-[1-(difluoromethyl)pyrazol-4-yl]-4-[4-(2,4-difluorophenyl)-6,7-dimethyl-pteridin-2-yl]morpholine] | < 0.05 |
| Cc1nc2nc(N3C[C@@H](C)O[C@@H](c4ccn(C5CC5)n4)C3)nc(-c3ccc(F)cc3F)c2nc1C [Example I-1265, (2R,6R)-2-(1-cyclopropylpyrazol-3-yl)-4-[4-(2,4-difluorophenyl)-6,7-dimethyl-pteridin-2-yl]-6-methyl-morpholine] | 0.05 to 0.5 |
| CN(C)C(=O)c1nc2c(-c3ccc(F)cc3F)nc(C3CCO[C@@H](c4cnn(C5CC5)c4)C3)nc2nc1C1CC1 (stereo partly drawn) [Example I-1603, 7-cyclopropyl-2-[(2R)-2-(1-cyclopropylpyrazol-4-yl)tetrahydropyran-4-yl]-4-(2,4-difluorophenyl)-N,N-dimethyl-pteridine-6-carboxamide] | 0.5 to 3 |
| Cc1nc2nc(N3C[C@@H](C)O[C@@H](c4cnn(C5CC5)c4)C3)nc(-c3ccc4c(c3F)CCC4(F)F)c2nc1C [Example I-1485, (2S,6R)-2-(1-cyclopropylpyrazol-4-yl)-4-[6,7-dimethyl-4-(1,1,4-trifluoroindan-5-yl)pteridin-2-yl]-6-methyl-morpholine] | < 0.05 |
| Cc1nc2nc(N3C[C@@H](C(F)F)O[C@@H](c4cnn(C5CC5)c4)C3)nc(-c3ccc(F)cc3F)c2nc1C (single isomer, unassigned) [Example I-1467] | < 0.05 |
| COCn1cc([C@H]2CN(c3nc(-c4ccc(F)cc4F)c4nc(C)c(C)nc4n3)C[C@@H](C3CC3)O2)cn1 [Example I-1736, (2R,6S)-2-cyclopropyl-4-[4-(2,4-difluorophenyl)-6,7-dimethyl-pteridin-2-yl]-6-[1-(methoxymethyl)pyrazol-4-yl]morpholine] | < 0.05 |
| Cc1nc2nc(N3C[C@@H](C4CC4)O[C@@H](c4cnn(C(F)F)c4)C3)nc(-c3ccc(F)cc3F)c2nc1C (stereo in doubt) [Example I-1702, (2R,6S)-2-cyclopropyl-6-[1-(difluoromethyl)pyrazol-4-yl]-4-[4-(2,4-difluorophenyl)-6,7-dimethyl-pteridin-2-yl]morpholine] | 0.05 to 0.5 |
